This is an account of results in patent publication US10538516B2, “Oxadiazole derivative and pharmaceutical containing same” (National Center for Geriatrics and Gerontology, priority 2015, dated 2020).

For the first test, the target named is T1, GAβ-dependent amyloid fibril formation (Human Aβ1-40 + GM1-containing liposome) (Homo sapiens, UniProt P05067).
T1 construct: Human Aβ1-40 (cat. #4307-v, prepared by Peptide Institute); purchased Peptide Institute 4307-v
T1 sequence (P05067 672-711 limits assumed): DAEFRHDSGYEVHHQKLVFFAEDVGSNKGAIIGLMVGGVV
Kind of test: Thioflavin T (ThT) assay of GAβ-dependent amyloid fibril formation (Aβ1-40 with GM1-containing liposome). It is filed as biochemical. To be noted: @5 μM; read-out: ThT Inhibitory activity (% inhibition). The method, boiled down: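 Human Aβ1-40 (75 μM stock) pre-incubated 10 min at room temperature with compound (75 or 15 μM solution), then GM1-containing cholesterol/sphingomyelin liposome added and incubated 37° C, 18 hours. Fibrils quantified by ThT fluorescence (ex 430/em 490 nm, pH 8.5 glycine buffer); inhibition as ratio to compound-free control.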
Turning to `O=C(N[C@@H](CO)c1nc(-c2ccc(OC(F)(F)F)cc2)no1)c1ccccc1` [Compound 92, (S)-N-(2-hydroxy-1-[3-{4-(tri-fluoromethoxy)phenyl}-1,2,4-oxadiazol-5-yl]ethyl)benzamide], the inhibition at 5 µM turned out to be 51%.

Still in this test, the particulars now being: @25 μM; read-out: ThT Inhibitory activity (% inhibition).
As for `O=C(N[C@@H](CO)c1nc(-c2ccc(OC(F)(F)F)cc2)no1)c1ccccc1` [Compound 92, (S)-N-(2-hydroxy-1-[3-{4-(tri-fluoromethoxy)phenyl}-1,2,4-oxadiazol-5-yl]ethyl)benzamide], the inhibition at 25 µM came to 81%.

Staying with this test, now noted: inhibition rate against amyloid fibril formation, final concentration of the compound 25 μM; 25 µM.
For `O=C(c1ccc(Cl)cc1)N1C[C@H](O)C[C@H]1c1nc(-c2ccc(OC(F)(F)F)cc2)no1` [Compound 82, (4-chlorophenyl) ((2S,4R)-4-hydroxy-2-[3-{4-(trifluoro-methoxy)phenyl}-1,2,4-oxadiazol-5-yl]pyrrolidin-1-yl)methanone], the “Inhibitory activity ABC evaluation” value was “C (the inhibition rate of less than 40% was evaluated as C)”.

The same test, now with this note: inhibition rate against amyloid fibril formation, final concentration of the compound 25 μM; read-out: Inhibitory activity ABC evaluation.
As to `O=C(N[C@H](CO)c1nc(-c2ccc(OC(F)(F)F)cc2)no1)c1ccc(Cl)cc1` [Compound 83, (R)-4-chloro-N-(2-hydroxy-1-[3-{4-(trifluoromethoxy)phenyl}-1,2,4-oxadiazol-5-yl]ethyl)benzamide], the inhibition at 25 µM was greater than 80%.

For `O=C1CC[C@@H](c2nc(-c3ccc(OC(F)(F)F)cc3)no2)N1C(=O)c1ccc(Cl)cc1` [Compound 84, (S)-1-(4-chloro-benzoyl)-5-[3-{4-(trifluoromethoxy)phenyl}-1,2,4-oxadiazol-5-yl]pyrrolidin-2-one], the inhibition at 25 µM fell in the range of 40 to 80%.

Consider `NC(=O)C[C@H](NC(=O)c1ccc(Cl)cc1)c1nc(-c2ccc(OC(F)(F)F)cc2)no1` [Compound 86, (S)-N-(3-amino-3-oxo-1-{3-[4-(trifluoromethoxy)phenyl]-1,2,4-oxadiazol-5-yl}propyl)-4-chlorobenzamide], for which the inhibition at 25 µM was less than 40%.

On to `CN(C)C(=O)C[C@H](NC(=O)c1ccc(Cl)cc1)c1nc(-c2ccc(OC(F)(F)F)cc2)no1` [Compound 87, (S)-4-chloro-N-(3-(dimethylamino)-3-oxo-1-[3-{4-(trifluoromethoxy)phenyl}-1,2,4-oxadiazol-5-yl]propyl) benzamide], for which the inhibition at 25 µM was 40 to 80%.

Regarding `CNC(=O)C[C@H](NC(=O)c1ccc(Cl)cc1)c1nc(-c2ccc(OC(F)(F)F)cc2)no1` [Compound 88, (S)-4-chloro-N-(3-(methylamino)-3-oxo-1-[3-{4-(trifluoromethoxy)phenyl}-1,2,4-oxadiazol-5-yl]propyl) benzamide], the inhibition at 25 µM was less than 40%.

For the compound `Oc1ccc(-c2noc(C(O)Cc3c[nH]c4ccccc34)n2)cc1` (centres unmarked) [Compound 89, 4-[5-{1-hydroxy-2-(1H-indol-3-yl)ethyl}-1,2,4-oxadiazol-3-yl]phenol], the inhibition at 25 µM fell in the range of 40 to 80%.

Take `O=C1CC(CO)(c2nc(-c3ccc(O)c(F)c3)no2)CN1c1ccc(Cl)cc1` (centres unmarked) [Compound 90, 1-(4-chlorophenyl)-4-{3-(3-fluoro-4-hydroxyphenyl)-1,2,4-oxadiazol-5-yl}-4-(hydroxy-methyl)pyrrolidin-2-one]: the inhibition at 25 µM fell in the range of 40 to 80%.

Consider `O=S(=O)(N[C@@H](CO)c1nc(-c2ccc(OC(F)(F)F)cc2)no1)c1cccc(Cl)c1` [Compound 91, (S)-3-chloro-N-(2-hydroxy-1-[3-{4-(trifluoromethoxy)phenyl}-1,2,4-oxadiazol-5-yl]ethyl)benzenesulfonamide], for which the inhibition at 25 µM is 40 to 80%.

Turning to `O=C(N[C@@H](CO)c1nc(-c2ccc(OC(F)(F)F)cc2)no1)c1ccccc1` [Compound 92, (S)-N-(2-hydroxy-1-[3-{4-(tri-fluoromethoxy)phenyl}-1,2,4-oxadiazol-5-yl]ethyl)benzamide], the inhibition at 25 µM was greater than 80%.

For the compound `O=C(N[C@@H](CO)c1nc(-c2ccc(OC(F)(F)F)cc2)no1)c1cccc(F)c1` [Compound 94, (S)-3-fluoro-N-(2-hydroxy-1-[3-{4-(trifluoromethoxy)phenyl}-1,2,4-oxadiazol-5-yl]ethyl)benzamide], the inhibition at 25 µM was greater than 80%.

As for `O=C(Nc1ccc(Cl)cc1)N[C@@H](CO)c1nc(-c2ccc(OC(F)(F)F)cc2)no1` [Compound 95, (S)-1-(4-chloro-phenyl)-3-(2-hydroxy-1-[3-{4-(trifluoromethoxy)phenyl}-1,2,4-oxadiazol-5-yl]ethyl)urea], the inhibition at 25 µM is less than 40%.
